Data taken from patent publication US7449484B2, “Compounds” (SmithKline Beecham Corporation, priority 2000, dated 2008).

Key:
[1] = test system: murine airpouch granuloma; experiment: Murine Air Pouch Granuloma Model of angiogenesis in vivo; set-up: species or system mice; details: positive control
Source text: Measurement of Angiogenesis In Vivo—Murine Air Pouch Granuloma Model:
The murine airpouch granuloma model of chronic inflammation (Kimura et al., 1985, J. Pharmacobio-Dyn., 8:393-400; Colville-Nash et al., 1995, J. Pharm. and Exp. Ther., 274:1463-1472) whose disclosure is incorporated herein by reference in its entirety, is characterized by inflammatory cell influx, fibrous tissue proliferation and intense angiogenesis. […] In addition, angiogenesis can be accurately quantitated by a vascular casting method.
Day 1, mice are anesthetized using Aerrane (isoflurane) gas (5%) or other approved methods, after which 3 mls of air is injected into the dorsal subcutaneous tissue using a 27 g needle. Mice are allowed to recover. […]
When the granuloma is removed it is weighed and then dried for 3 days at 45° C. and reweighed. […] The carmine content is then determined against a carmine red standard curve (0.5 to 2 mg/ml) generated in extracted tissue from non carmine treated animals and read at 490 nm. Sample and standard values are determined typically using DeltaSoft Elisa analysis software (Biometallics Inc., Princeton, N.J.). […]
The effect of compounds on vascular density was typically measured for 6 days after induction of the granuloma. This time point has been determined to be at or near the peak of angiogenesis. […] Medroxyprogesterone had no effect on granuloma size as measured by dry weight.

| Compound | melting point [°C] | maximum reduction (vascular density) ([1]; measured 6 days after induction of the granuloma) [%] | effect on granuloma size as measured by dry weight ([1]; murine air pouch granuloma) |
| --- | --- | --- | --- |
| CCOc1ccc2cc(-c3nc(C(C)(C)C)[nH]c3-c3ccncc3)ccc2c1 | 258 to 259 |  |  |
| medroxyprogesterone |  | 50 | no effect |
